# Measurements from patent US10681909B2, “Herbicidal triazoles” (FMC Corporation, priority 2014, dated 2020).
# Columns and labels:
# [1] = system: buckwheat, wild; assay: Test D postemergence; assay type: in vivo, Polygonum convolvulus; conditions: scale 0 to 100
# Excerpt: (§1) Seeds of plant species selected from bluegrass (annual bluegrass, Poa annua), blackgrass (Alopecurus myosuroides), canarygrass (Phalaris minor), chickweed (common chickweed, Stellaria media), galium (catchweed bedstraw, Galium aparine), bromegrass, down (downy bromegrass, Bromus tectorum), Russian thistle (Salsola kali), field poppy (Papaver rhoeas), field violet (Viola arvensis), foxtail, green (green foxtail, Setaria viridis), deadnettle (henbit deadnettle, Lamium amplexicaule), ryegrass, Ital. (Italian ryegrass, Lolium multiflorum), kochia (Kochia scoparia), lambsquarters (Chenopodium album), oilseed rape (Brassica napus), pigweed (Amaranthus retroflexus), chamomile (scentless chamomile, Matricaria inodora), speedwell (bird's-eye speedwell, Veronica persica), barley, spring (spring barley, Hordeum vulgare), wheat, spring (spring wheat, Triticum aestivum), buckwheat, wild (wild buckwheat, Polygonum convolvulus), wild mustard (Sinapis arvensis), oat, wild (wild oat, Avena fatua), radish, wild (wild radish, Raphanus raphanistrum), […]), barley, winter (winter barley, Hordeum vulgare), and wheat, winter (winter wheat, Triticum aestivum) were planted into a silt loam soil and treated preemergence with test chemicals formulated in a non-phytotoxic solvent mixture which included a surfactant. At the same time, these species were planted in pots containing Sunshine Redi-Earth® planting medium comprising spaghnum peat moss, vermiculite, starter nutrients and dolomitic limestone and treated with postemergence applications of the test chemicals formulated in the same manner. Plants ranged in height from 2 to 18 cm (1- to 4-leaf stage). Treated plants and controls were maintained in a controlled growth environment for 14 to 21 d after which time all species were compared to controls and visually evaluated. […] A dash (-) response means no test result.
# [2] = system: soybean; assay: Test C preemergence; assay type: in vivo, Glycine max; conditions: for Soybean plant response rating (0 to 100): Preemergence, visual rating after 13 to 15 d; for Plant response rating (scale of 0 to 100 where 0 is no effect and 100 is complete control): Soybean, preemergence, 250 g ai/ha
# Excerpt: Seeds of plant species selected from blackgrass (Alopecurus myosuroides), ryegrass, Italian (Italian ryegrass, Lolium multiflorum), wheat (winter wheat, Triticum aestivum), galium (catchweed bedstraw, Galium aparine), corn (Zea mays), crabgrass, large (large crabgrass, Digitaria sanguinalis), foxtail, giant, (giant foxtail, Setaria faberii), johnsongrass (Sorghum halepense), lambsquarters (Chenopodium album), morningglory (Ipomoea coccinea), nutsedge, yellow (yellow nutsedge, Cyperus esculentus), pigweed (Amaranthus retroflexus), ragweed (common ragweed, Ambrosia elatior), soybean (Glycine max), barnyardgrass (Echinochloa crus-galli), oilseed rape (Brassica napus), waterhemp (common waterhemp, Amaranthus rudis), and velvetleaf (Abutilon theophrasti) were planted into a blend of loam soil and sand and treated preemergence with test chemicals formulated in a non-phytotoxic solvent mixture which included a surfactant. At the same time, plants selected from these crop and weed species and also chickweed (common chickweed, Stellaria media), oat, wild (wild oat, Avena fatua), and kochia (Kochia scoparia), were planted in pots containing Sunshine Redi-Earth® planting medium comprising spaghnum peat moss, vermiculite, starter nutrients and dolomitic limestone and treated with postemergence applications of test chemicals formulated in the same manner. Plants ranged in height from 2 to 18 cm (1- to 4-leaf stage) for postemergence treatments. […] A dash (-) response means no test result.
# [3] = system: galium; assay: Test A postemergence; assay type: in vivo, Galium aparine; conditions: 0 to 100 scale (0 no effect, 100 complete control), approx. 10 d
# How it was run: (§2)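 Weed and crop species in loam–sand blend sprayed preemergence on soil or postemergence at 2–10 cm, one- to two-leaf stage, with chemicals in surfactant-containing solvent. Injury rated visually after ~10 d in greenhouse versus untreated controls on a 0–100 scale (100 = complete control).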
# [4] = system: galium; assay: Test D postemergence; assay type: in vivo, Galium aparine; conditions: scale 0 to 100
# Excerpt: as §1
# [5] = system: ryegrass, Italian; assay: Test A preemergence; assay type: in vivo, Lolium multiflorum; conditions: 0 to 100 scale (0 no effect, 100 complete control)
# How it was run: as §2
# [6] = system: barley, spring; assay: Test D postemergence; assay type: in vivo, Hordeum vulgare; conditions: scale 0 to 100
# Excerpt: as §1
# [7] = system: barley, winter; assay: Test D postemergence; assay type: in vivo, Hordeum vulgare; conditions: scale 0 to 100
# Excerpt: as §1
# [8] = system: bromegrass, down; assay: Test D preemergence; assay type: in vivo, Bromus tectorum; conditions: for Plant response rating (0 to 100), Bromegrass, Down: 16 g ai/ha, 0 is no effect, 100 is complete control; for Plant response rating: Bromegrass, Down: scale 0 to 100
# Excerpt: as §1
# [9] = system: radish, wild; assay: Test D postemergence; assay type: in vivo, Raphanus raphanistrum; conditions: scale 0 to 100
# Excerpt: as §1
# [10] = system: deadnettle; assay: Test D postemergence; assay type: in vivo, Lamium amplexicaule; conditions: scale 0 to 100
# Excerpt: as §1
SMILES,"Plant response rating: Buckwheat, Wild ([1]; 16 g ai/ha)","Plant response rating: Buckwheat, Wild ([1]; 31 g ai/ha)","Plant response rating: Buckwheat, Wild ([1]; 62 g ai/ha)","Plant response rating: Buckwheat, Wild ([1]; 125 g ai/ha)",Soybean plant response rating (0 to 100) ([2]; 31 g ai/ha),Soybean plant response rating (0 to 100) ([2]; 62 g ai/ha),Plant response rating (scale of 0 to 100 where 0 is no effect and 100 is complete control) [2],"Plant response rating, Galium ([3]; 125 g ai/ha)","Plant response rating, Galium ([3]; 500 g ai/ha)",Plant response rating: Galium ([4]; 16 g ai/ha),Plant response rating: Galium ([4]; 31 g ai/ha),Plant response rating: Galium ([4]; 62 g ai/ha),Plant response rating: Galium ([4]; 125 g ai/ha),"Plant response rating, Ryegrass, Italian ([5]; 125 g ai/ha)","Plant response rating: Barley, Spring ([6]; 16 g ai/ha)","Plant response rating: Barley, Spring ([6]; 31 g ai/ha)","Plant response rating: Barley, Spring ([6]; 62 g ai/ha)","Plant response rating: Barley, Spring ([6]; 125 g ai/ha)","Plant response rating: Barley, Winter ([7]; 16 g ai/ha)","Plant response rating: Barley, Winter ([7]; 31 g ai/ha)",other results
Fc1ccc(-c2nc(OCC(F)(F)F)n(Cc3ccnc(C(F)(F)F)c3)n2)cc1 [Compound 30],70,70,85,85,10,5,40,60,90,70,75,80,85,90,30,40,35,45,20,25,"Plant response rating, Ryegrass, Italian ([5]; 500 g ai/ha, approx. 10 d): 100; Plant response rating: Barley, Winter ([7]; 62 g ai/ha): 30; Plant response rating: Barley, Winter ([7]; 125 g ai/ha): 40; Plant response rating (0 to 100), Bromegrass, Down [8]: 35; Plant response rating: Bromegrass, Down ([8]; 31 g ai/ha): 40; Plant response rating: Bromegrass, Down ([8]; 62 g ai/ha): 55; Plant response rating: Bromegrass, Down ([8]; 125 g ai/ha): 70; Plant response rating: Radish, Wild ([9]; 16 g ai/ha): 95; Plant response rating: Radish, Wild ([9]; 31 g ai/ha): 95; Plant response rating: Radish, Wild ([9]; 62 g ai/ha): 98; Plant response rating: Radish, Wild ([9]; 125 g ai/ha): 100; Plant response rating: Deadnettle ([10]; 16 g ai/ha): 70; Plant response rating: Deadnettle ([10]; 31 g ai/ha): 75; Plant response rating: Deadnettle ([10]; 62 g ai/ha): 90; Plant response rating: Deadnettle ([10]; 125 g ai/ha): 100"
FC(F)(F)COc1nc(-c2ccc(Cl)cc2)nn1Cc1ccnc(C(F)(F)F)c1 [Compound 31],65,75,75,75,5,5,10,70,90,70,75,80,90,90,35,45,45,50,25,35,"Plant response rating, Ryegrass, Italian ([5]; 500 g ai/ha): 100; Plant response rating: Barley, Winter ([7]; 62 g ai/ha): 40; Plant response rating: Barley, Winter ([7]; 125 g ai/ha): 50; Plant response rating (0 to 100), Bromegrass, Down [8]: 25; Plant response rating: Bromegrass, Down ([8]; 31 g ai/ha): 25; Plant response rating: Bromegrass, Down ([8]; 62 g ai/ha): 50; Plant response rating: Bromegrass, Down ([8]; 125 g ai/ha): 55; Plant response rating: Radish, Wild ([9]; 16 g ai/ha): 95; Plant response rating: Radish, Wild ([9]; 31 g ai/ha): 95; Plant response rating: Radish, Wild ([9]; 62 g ai/ha): 95; Plant response rating: Radish, Wild ([9]; 125 g ai/ha): 100; Plant response rating: Deadnettle ([10]; 16 g ai/ha): 75; Plant response rating: Deadnettle ([10]; 31 g ai/ha): 75; Plant response rating: Deadnettle ([10]; 62 g ai/ha): 80; Plant response rating: Deadnettle ([10]; 125 g ai/ha): 95"
